Patent US8530490B2, “Uracil compound or salt thereof having human deoxyuridine triphosphatase inhibitory activity” (Taiho Pharmaceutical Co., Ltd., priority 2008, dated 2013)

These compounds were tested against human dUTPase (Homo sapiens (Human), UniProt P33316) (assay: Human dUTPase inhibitory effect: production of [5-3H]dUMP from [5-3H]dUTP, measured by HPLC with flow scintillation). Conditions: [5-3H]dUMP production from [5-3H]dUTP, 37° C., 15 minutes.
human dUTPase, sequence (P33316 94-252): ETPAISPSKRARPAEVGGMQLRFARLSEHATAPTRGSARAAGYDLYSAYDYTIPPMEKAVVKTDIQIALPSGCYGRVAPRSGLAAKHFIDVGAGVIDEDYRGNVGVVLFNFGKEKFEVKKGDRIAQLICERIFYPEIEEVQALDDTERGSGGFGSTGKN
Format: biochemical
Outline: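 E. coli-expressed purified human dUTPase reacted with 1 μM dUTP stock containing [5-3H]dUTP in Tris pH 7.4, MgCl2, 2-mercaptoethanol and albumin, 15 min at 37° C; stopped by 1 min at 100° C. [5-3H]dUMP formed was separated by reversed-phase ion-pair HPLC and quantified by flow scintillation versus water control.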
`O=c1ccn(COCCCC2(NS(=O)(=O)c3ccccc3)CC2)c(=O)[nH]1` [Example 164, N-(1-(3-((2,4-dioxo-3,4-dihydropyrimidin-1(2H)-yl)methoxy)propyl)cyclopropyl)benzenesulfonamide] showed an IC50 of 6.02 µM.
`COc1cccc(S(=O)(=O)NC2(CCCOCn3ccc(=O)[nH]c3=O)CC2)c1` [Example 165, N-(1-(3-((2,4-dioxo-3,4-dihydropyrimidin-1(2H)-yl)methoxy)propyl)cyclopropyl)-3-methoxybenzenesulfonamide] showed an IC50 of 1.86 µM.
`O=c1ccn(COCCCCNS(=O)(=O)c2cccc(OCC3CC3)c2)c(=O)[nH]1` [Example 166, 3-(cyclopropylmethoxy)-N-(4-((2,4-dioxo-3,4-dihydropyrimidin-1(2H)-yl)methoxy)butyl)benzenesulfonamide] showed an IC50 of 0.64 µM.
For `O=c1ccn(COCCCC2(NS(=O)(=O)c3cccc(OCC4CC4)c3)CC2)c(=O)[nH]1` [Example 167, 3-(cyclopropylmethoxy)-N-(1-(3-((2,4-dioxo-3,4-dihydropyrimidin-1(2H)-yl)methoxy)propyl)cyclopropyl)benzenesulfonamide], the IC50 was 0.13 µM.
Compound `CC(C)(NS(=O)(=O)c1ccccc1)c1ccc(Cn2ccc(=O)[nH]c2=O)cc1` [Example 176, N-(2-(4-((2,4-dioxo-3,4-dihydropyrimidin-1(2H)-yl)methyl)phenyl)propan-2-yl)benzenesulfonamide] has an IC50 of 2.69 µM.
`COc1cccc(S(=O)(=O)NC(C)(C)c2ccc(Cn3ccc(=O)[nH]c3=O)cc2)c1` [Example 177, N-(2-(4-((2,4-dioxo-3,4-dihydropyrimidin-1(2H)-yl)methyl)phenyl)propan-2-yl)-3-methoxybenzenesulfonamide] gave an IC50 of 2.57 µM.
In the case of `CC(C)(NS(=O)(=O)c1cccc(OCC2CC2)c1)c1ccc(Cn2ccc(=O)[nH]c2=O)cc1` [Example 178, 3-(cyclopropanemethoxy)-N-(2-(4-((2,4-dioxo-3,4-dihydropyrimidin-1(2H)-yl)methyl)phenyl)propan-2-yl)benzenesulfonamide], the IC50 is reported as 0.24 µM.
Work on `CC(C)(NS(=O)(=O)c1cccc(OCC2CC2)c1)c1ccc(Cn2ccc(=O)[nH]c2=O)nc1` [Example 179, 3-(cyclopropanemethoxy)-N-(2-(6-((2,4-dioxo-3,4-dihydropyrimidin-1(2H)-yl)methyl)pyridin-3-yl)propan-2-yl)benzenesulfonamide] yielded an IC50 of 0.11 µM.
